Tests used:
ZEAMX (Corn, Field) [1] = experiment: Preemergence herbicidal evaluation; assay type: in vivo, Zea mays, L.; details: rated 4-5 weeks after treatment
[2] = system: ECHORC (Echinochloa oryzoides); experiment: Flooded paddy, preemergence weed control; assay type: in vivo, Echinochloa oryzoides (Ard.) Fritsch.; details: rated 3-4 weeks after treatment, 0-9 rating scale
How it was run: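 In this preemergence paddy assay, weed seeds or organs are sown at up to 0.5 cm in silt loam and covered by 1.5–3 cm of water for the full test period. After treatment the pots are kept in a greenhouse, and herbicidal effect is rated 0-9 visually against a control.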

[3] = system: ECHCG (Echinochloa crus-galli); experiment: Postemergence herbicidal evaluation; assay type: in vivo, (L.) Beau; details: for ECHCG herbicidal rating: postemergence
How it was run: (§1)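 Seedlings grown for about two weeks were sprayed postemergence and then kept under standard greenhouse care. Injury was rated visually 4–5 weeks after treatment on a 0–9 scale against untreated controls, and ratings from repeat tests were averaged.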

[4] = system: ABUTH (Abutilon theophrasti); experiment: Preemergence herbicidal evaluation; assay type: in vivo, Medic.; details: rated 4-5 weeks after treatment
CYPIR (Cyperus iria) = experiment: Flooded paddy, postemergence weed control; assay type: in vivo; details: postemergence weeds, rated 3-4 weeks after treatment
Description: (§2) Results of herbicide evaluation are expressed on a rating scale (0-9). The scale is based upon a visual observation of plant stand, vigor, malformation, size, chlorosis and overall plant appearance as compared with a control.
(§3) Plastic containers containing weeds which are 3 to 5 cm tall and rice seedlings at the 1.5 to 2.5 leaf stage are flooded with water. The water is maintained at 1.5 to 3 cm above the soil surface for the duration of the experiment. Test compounds are applied as aqueous/acetone mixtures 50/50 v/v directly into the flood water to provide the equivalent of about 0.0320 to 0.2500 kg/ha of active ingredient. The treated containers are placed on greenhouse benches and cared for in accordance with conventional greenhouse procedures. Three to four weeks after treatment, the test is terminated and each container is examined and herbicidal effect rated according to the rating system provided in Example 87. The compounds evaluated are identified in Example 87 and plant species used are identified in Example 89.

[5] = system: ECHORC (Echinochloa oryzoides); experiment: Flooded paddy, postemergence weed control; assay type: in vivo, Echinochloa oryzoides (Ard.) Fritsch.; details: postemergence weeds, rated 3-4 weeks after treatment
Description: as §2, §3

[6] = system: IPOHE (Ipomoea hederacea); experiment: Preemergence herbicidal evaluation; assay type: in vivo, (L.) Jacq.; details: rated 4-5 weeks after treatment
[7] = system: SAGPY (Sagittaria pygmaea); experiment: Flooded paddy, postemergence weed control; assay type: in vivo, L.; details: postemergence weeds, rated 3-4 weeks after treatment
Description: as §2, §3

[8] = system: TRZAWR (Wheat, Winter, cv Riband); experiment: Preemergence herbicidal evaluation; assay type: in vivo, Triticum aestivum; details: rated 4-5 weeks after treatment
How it was run: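 Seeds mixed with potting soil were planted atop about one inch of soil, then sprayed with test compound in aqueous acetone. Cups were kept in the greenhouse and rated visually 4–5 weeks after treatment on a 0–9 scale against untreated control.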

[9] = system: GLXMAW (Soybean, Williams); experiment: Postemergence herbicidal evaluation; assay type: in vivo, Glycine max, (L.) Merr. cv Williams; details: for GLXMAW herbicidal rating: postemergence
How it was run: as §1

[10] = system: GLXMAW (Soybean, Williams); experiment: Preemergence herbicidal evaluation; assay type: in vivo, Glycine max, (L.) Merr. cv Williams; details: rated 4-5 weeks after treatment
ZEAMX (Corn, Field) [11] = experiment: Postemergence herbicidal evaluation; assay type: in vivo, Zea mays, L.; details: for ZEAMX herbicidal rating: postemergence
How it was run: as §1

ORYSAT (Rice, Tebonnet) = experiment: Flooded paddy, post-transplant and postemergence rice tolerance; assay type: in vivo, Oryza sativa, (L.) Tebonnet; details: post-transplant rice, rated 3-4 weeks after treatment
Description: as §2, §3

[12] = system: CYPSE (Cyperus serotinus); experiment: Flooded paddy, postemergence weed control; assay type: in vivo, Rottb.; details: postemergence weeds, rated 3-4 weeks after treatment
Description: as §2, §3

[13] = system: MOOVA (Monochoria vaginalis); experiment: Flooded paddy, postemergence weed control; assay type: in vivo, Presl.; details: postemergence weeds, rated 3-4 weeks after treatment
Description: as §2, §3

1-methyl-3-[3-(1,3-oxathian-2-yl)-1,2-benzisothiazol-5-yl]-6-(trifluoromethyl)uracil S′,S′-dioxide [Compound 35]
ZEAMX preemergence herbicidal rating (ZEAMX (Corn, Field) [1]; Rate 0.0620 kg/ha): 5.5
Preemergence herbicidal rating ZEAMX (ZEAMX (Corn, Field) [1]; Rate 0.0620 kg/ha): 0.0
ZEAMX preemergence herbicidal rating (ZEAMX (Corn, Field) [1]; Rate 0.1250 kg/ha): 9.0
Preemergence herbicidal rating ZEAMX (ZEAMX (Corn, Field) [1]; Rate 0.1250 kg/ha): 1.0
ZEAMX preemergence herbicidal rating (ZEAMX (Corn, Field) [1]; Rate 0.2500 kg/ha): 9.0
Preemergence herbicidal rating ZEAMX (ZEAMX (Corn, Field) [1]; Rate 0.2500 kg/ha): 2.5
herbicidal rating, ECHORC ([2]; rate 0.0080 kg/ha): 0.0
herbicidal rating, ECHORC ([2]; rate 0.0080 kg/ha, listed as 82): 7.0
herbicidal rating, ECHORC ([2]; rate 0.0320 kg/ha): 5.5
herbicidal rating, ECHORC ([2]; rate 0.0320 kg/ha, listed as 82): 9.0
herbicidal rating, ECHORC ([2]; rate 0.1250 kg/ha): 7.5
herbicidal rating, ECHORC ([2]; rate 0.1250 kg/ha, listed as 82): 9.0
ECHCG herbicidal rating ([3]; rate 0.0320 kg/ha): 2.0
ECHCG herbicidal rating ([3]; rate 0.0620 kg/ha): 3.0
Postemergence herbicidal rating, ECHCG ([3]; rate 0.0320 kg/ha): 3.0
Postemergence herbicidal rating, ECHCG ([3]; rate 0.0620 kg/ha): 4.0
ABUTH preemergence herbicidal rating ([4]; Rate 0.0620 kg/ha): 9.0
Preemergence herbicidal rating ABUTH ([4]; Rate 0.0620 kg/ha): 4.5
ABUTH preemergence herbicidal rating ([4]; Rate 0.1250 kg/ha): 9.0
Preemergence herbicidal rating ABUTH ([4]; Rate 0.1250 kg/ha): 9.0
ABUTH preemergence herbicidal rating ([4]; Rate 0.2500 kg/ha): 9.0
Preemergence herbicidal rating ABUTH ([4]; Rate 0.2500 kg/ha): 9.0
herbicide rating (0-9) CYPIR (CYPIR (Cyperus iria); 0.0620 kg/ha into flood water): 9.0
herbicide rating (0-9) CYPIR (CYPIR (Cyperus iria); 0.1250 kg/ha into flood water): 9.0
herbicide rating (0-9) CYPIR (CYPIR (Cyperus iria); 0.2500 kg/ha into flood water): 9.0
herbicide rating (0-9) ECHORC ([5]; 0.0620 kg/ha into flood water): 4.0
herbicide rating (0-9) ECHORC ([5]; 0.1250 kg/ha into flood water): 4.0
herbicide rating (0-9) ECHORC ([5]; 0.2500 kg/ha into flood water): 9.0
IPOHE preemergence herbicidal rating ([6]; Rate 0.0620 kg/ha): 9.0
Preemergence herbicidal rating IPOHE ([6]; Rate 0.0620 kg/ha): 0.5
IPOHE preemergence herbicidal rating ([6]; Rate 0.1250 kg/ha): 9.0
Preemergence herbicidal rating IPOHE ([6]; Rate 0.1250 kg/ha): 3.0
IPOHE preemergence herbicidal rating ([6]; Rate 0.2500 kg/ha): 9.0
Preemergence herbicidal rating IPOHE ([6]; Rate 0.2500 kg/ha): 7.0
herbicide rating (0-9) SAGPY ([7]; 0.0620 kg/ha into flood water): 0.0
herbicide rating (0-9) SAGPY ([7]; 0.1250 kg/ha into flood water): 0.0
herbicide rating (0-9) SAGPY ([7]; 0.2500 kg/ha into flood water): 0.0
TRZAWR preemergence herbicidal rating ([8]; Rate 0.0620 kg/ha): 7.0
Preemergence herbicidal rating TRZAWR ([8]; Rate 0.0620 kg/ha): 0.0
TRZAWR preemergence herbicidal rating ([8]; Rate 0.1250 kg/ha): 9.0
Preemergence herbicidal rating TRZAWR ([8]; Rate 0.1250 kg/ha): 0.0
TRZAWR preemergence herbicidal rating ([8]; Rate 0.2500 kg/ha): 9.0
Preemergence herbicidal rating TRZAWR ([8]; Rate 0.2500 kg/ha): 0.0
GLXMAW herbicidal rating ([9]; rate 0.0320 kg/ha): 4.0
GLXMAW herbicidal rating ([9]; rate 0.0620 kg/ha): 5.5
Postemergence herbicidal rating, GLXMAW ([9]; rate 0.0320 kg/ha): 9.0
Postemergence herbicidal rating, GLXMAW ([9]; rate 0.0620 kg/ha): 9.0
GLXMAW preemergence herbicidal rating ([10]; Rate 0.0620 kg/ha): 8.0
Preemergence herbicidal rating GLXMAW ([10]; Rate 0.0620 kg/ha): 0.0
GLXMAW preemergence herbicidal rating ([10]; Rate 0.1250 kg/ha): 9.0
Preemergence herbicidal rating GLXMAW ([10]; Rate 0.1250 kg/ha): 0.5
GLXMAW preemergence herbicidal rating ([10]; Rate 0.2500 kg/ha): 9.0
Preemergence herbicidal rating GLXMAW ([10]; Rate 0.2500 kg/ha): 2.0
ZEAMX herbicidal rating (ZEAMX (Corn, Field) [11]; rate 0.0320 kg/ha): 3.0
ZEAMX herbicidal rating (ZEAMX (Corn, Field) [11]; rate 0.0620 kg/ha): 3.0
Postemergence herbicidal rating, ZEAMX (ZEAMX (Corn, Field) [11]; rate 0.0320 kg/ha): 7.5
Postemergence herbicidal rating, ZEAMX (ZEAMX (Corn, Field) [11]; rate 0.0620 kg/ha): 7.5
herbicide rating (0-9) ORYSAT (rice tolerance) (ORYSAT (Rice, Tebonnet); 0.0620 kg/ha into flood water): 3.0
herbicide rating (0-9) ORYSAT (rice tolerance) (ORYSAT (Rice, Tebonnet); 0.1250 kg/ha into flood water): 4.0
herbicide rating (0-9) ORYSAT (rice tolerance) (ORYSAT (Rice, Tebonnet); 0.2500 kg/ha into flood water): 5.0
herbicide rating (0-9) CYPSE ([12]; 0.0620 kg/ha into flood water): 0.0
herbicide rating (0-9) CYPSE ([12]; 0.1250 kg/ha into flood water): 0.0
herbicide rating (0-9) CYPSE ([12]; 0.2500 kg/ha into flood water): 9.0
herbicide rating (0-9) MOOVA ([13]; 0.0620 kg/ha into flood water): 9.0
herbicide rating (0-9) MOOVA ([13]; 0.1250 kg/ha into flood water): 9.0
herbicide rating (0-9) MOOVA ([13]; 0.2500 kg/ha into flood water): 9.0

— patent US6706663B2, “Herbicidal 3-heterocyclic substituted benzisothiazole and benzisoxazole compounds” (Wyeth, priority 2000, dated 2004)
